Patent US20240293557A1, “PROTEOLYSIS TARGETING CHIMERAS AND METHODS OF USE THEREOF” (University of Maryland, Baltimore, priority 2021, published 2024)
pIC50: −log10 of the molar value. “Also recorded” adds a separate entry of the source. Like-named read-outs stand apart in the source and are kept apart here.

Key:
CDK9 = CDK9 (Homo sapiens (Human), UniProt P50750); experiment: CDK9 activity assay (Nanosyn microfluidics mobility shift platform); assay type: biochemical
Protocol: CDK9 activity assays were performed by Nanosyn using a microfluidics mobility shift platform. In this assay, a fluorescently labeled substrate is incubated with the enzyme in the presence of test compounds. Samples are run through microfluidic chips, separating them based on differences in charge; this separates the more positive substrate from the more negative product. Enzyme activity is measured through comparison of the fluorescence from substrate and product peaks.

MOLM14 cells = experiment: alamarBlue cell viability assay of MOLM14 cells; assay type: cell-based; conditions: Homo sapiens, MOLM-14
Protocol: In vitro evaluations. All 36 PROTACs are evaluated in the relevant kinase assays, and those with Ki values >10-fold weaker than the parent drug are not advanced further. […] Next, the IC50s of lead indirect MCL-1 PROTACs are determined by alamarBlue cell viability assays of four human AML cell lines.
Both MOLM14 and MV4;11 AML cell lines are relatively sensitive to VEN in vitro; harbor a FLT3-ITD mutation plus an MLL rearrangement, two relatively common poor-prognosis AML mutations (both cells lines also contain additional mutations); and are dependent on MCL-1 and BCL-2, and express relatively high levels of both. In addition, both MOLM14 and MV4;11 are sensitive to CDK9 inhibitors, PI3K/mTOR inhibitors and MEK inhibitors. […] Three repeats of each IC50 determination assay are performed for each compound against each of these four AML cell lines. Multiple compounds are tested against all four AML cell lines at once, using alamarBlue microplate assays previously described. Specifically, cell lines are treated with vehicle (negative control), PROTAC alone, parent (non-PROTAC) drug alone, VEN alone, the combination of parent drug+VEN, and the combination of PROTAC+VEN, each at multiple concentrations, and IC50s in the AML cell lines determined. […] Western blotting is conducted after treatment of cells with the active PROTACs to determine if dose-dependent reduction of MCL-1 and CDK9 or PI3K/mTOR or MEK proteins is observed.
Cell viability of MOLM14 cells was measured in presence of test compounds via alamarBlue assay. This is a colorimetric assay that uses resazurin, a reduction-oxidation indicator. After incubation, resazurin is added to the test wells. The reduced form of resazurin is resorufin, which is pink and highly fluorescent. This can be measured through absorbance or fluorescence and is proportional to the amount of living cells.

[1] = test system: Luc-labelled MOLM14 AML cells; experiment: Luc-labelled MOLM14 AML xenograft in NRG mice, venetoclax monotherapy or combinations; assay type: in vivo, mouse; conditions: MOLM14 AML-bearing NRG mice; for AML burden (fold-change total body luminescence vs d0): two 5 d treatment cycles (d1-5, d21-25), imaging d7/d14/d21, vs vehicle
Protocol: Next, these two compounds are tested at their MTD(s) in a 5 d schedule that utilized to evaluate VEN-based combinations against a luciferase (Luc)-labelled MOLM14 human AML cell line xenograft model. NRG mice are infused with Luc-labelled MOLM14 AML cells on day -10. After Xenogen quantification of baseline total body luminescence on d0, mice are placed into experimental groups balanced for AML burden. Each experiment to evaluate the two selected indirect MCL-1 PROTACs in vivo involves 10 groups of 5 MOLM14 AML-bearing mice treated with: (1) vehicle, (2-3) lead PROTACs, (4-5) corresponding parent drugs, (6) VEN, (7-8) corresponding parent drugs+VEN and (9-10) lead PROTACs+VEN. […] and VEN are administered at the same molar concentration as the novel PROTACs; additional control groups are needed if the MTDs of the two PROTACs differ. MOLM14 AML-bearing NRG mice are dosed daily PO on dl-5 and d21-25, assessed for AML burden by Xenogen imaging on d7, d14, and d21, and monitored until clinical signs dictate need for euthanasia (projected average 10 weeks). Primary response endpoints are AML response quantitation (fold-change in AML burden on d7/14/21 vs d0 for each mouse) via imaging. Comparisons of quantitative imaging results are confirmed by Kaplan-Meier survival analyses. In addition, the two selected PROTACs are similarly tested against a Luc-labelled MV4;11 cell line xenograft model. […]
Thus, the proposed sample size (5 mice/group) is expected to provide sufficient power for statistical analyses (at p<0.05 level; α=0.05, β=0.1), which is estimated with the standard deviation of AML burden over time monitored and the expected drug efficacy differences. […] AML burden is quantified using log transformed ratio of luminescence at d7/14/21 vs d0 for each mouse (fold-change); groups are compared using the appropriate parametric (ANOVA; t-test, etc) or non-parametric alternative as necessary (Wilcoxon rank sum, Kruskal-Wallis). […]
Two of the parent drug candidates are synthesized but the syntheses are published and short. […] The indirect MCL-1 PROTAC candidates are evaluated in the kinase assays as they are synthesized. […] On d0, after Xenogen quantification of baseline total body luminescence (AML burden), groups of 5 AML-bearing mice were treated on days 1-5, per a previously established MTD POx5d schedule, with VEN (150 mg/kg/d POx5), as monotherapy or co-administered with SOR (30 mg/kg/d POx5), ART (50 mg/kg/d POx5), and/or ASP (2001U/kg IP single dose). […] On d7, d14 and d21, each mouse was Xenogen imaged for total body luminescence, fold-change AML burden from d0 was calculated for each mouse, and mean (+/−SD) fold-change for each experimental group plotted. […]

[2] = test system: MOLM14 MCL1 OE cloned cell lines; experiment: 48 h alamarBlue cell viability assay of MOLM14 MCL1 OE cloned cell lines; assay type: cell-based, human; conditions: MOLM14 MCL1 OE cloned cell lines vs control cell lines
Description: Method: OLM14 AML cell were lentivirally transduced to overexpress MCL1. […] MOLM14 AML cells were transduced with lentiviral expression vector (LV) pWCC43 backbone containing EF1a—driven GFP and Ubiquitin (Ub)-driven MCL1, or control empty LV without MCL1, or control LV containing Luc in place of MCL1, and then single-cell subcloned.

[3] = MOLM14, 48 hr, read-out: Cell Viability (MOLM14 IC50-nM) 48 hr
[4] = MOLM14, 72 hr, read-out: Cell Viability (MOLM14 IC50-nM) 72 hr

CDK9, sequence (P50750 whole entry): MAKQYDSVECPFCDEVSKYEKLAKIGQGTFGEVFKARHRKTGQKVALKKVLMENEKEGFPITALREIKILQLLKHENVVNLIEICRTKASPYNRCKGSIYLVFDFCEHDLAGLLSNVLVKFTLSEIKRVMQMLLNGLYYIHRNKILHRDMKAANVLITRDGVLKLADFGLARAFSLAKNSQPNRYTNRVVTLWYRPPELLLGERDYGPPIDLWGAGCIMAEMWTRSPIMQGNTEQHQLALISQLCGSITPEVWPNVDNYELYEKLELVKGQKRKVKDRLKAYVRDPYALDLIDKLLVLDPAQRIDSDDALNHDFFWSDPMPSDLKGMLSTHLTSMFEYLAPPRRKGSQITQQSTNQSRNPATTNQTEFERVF
CDK9, sequence (O60563 whole entry partner): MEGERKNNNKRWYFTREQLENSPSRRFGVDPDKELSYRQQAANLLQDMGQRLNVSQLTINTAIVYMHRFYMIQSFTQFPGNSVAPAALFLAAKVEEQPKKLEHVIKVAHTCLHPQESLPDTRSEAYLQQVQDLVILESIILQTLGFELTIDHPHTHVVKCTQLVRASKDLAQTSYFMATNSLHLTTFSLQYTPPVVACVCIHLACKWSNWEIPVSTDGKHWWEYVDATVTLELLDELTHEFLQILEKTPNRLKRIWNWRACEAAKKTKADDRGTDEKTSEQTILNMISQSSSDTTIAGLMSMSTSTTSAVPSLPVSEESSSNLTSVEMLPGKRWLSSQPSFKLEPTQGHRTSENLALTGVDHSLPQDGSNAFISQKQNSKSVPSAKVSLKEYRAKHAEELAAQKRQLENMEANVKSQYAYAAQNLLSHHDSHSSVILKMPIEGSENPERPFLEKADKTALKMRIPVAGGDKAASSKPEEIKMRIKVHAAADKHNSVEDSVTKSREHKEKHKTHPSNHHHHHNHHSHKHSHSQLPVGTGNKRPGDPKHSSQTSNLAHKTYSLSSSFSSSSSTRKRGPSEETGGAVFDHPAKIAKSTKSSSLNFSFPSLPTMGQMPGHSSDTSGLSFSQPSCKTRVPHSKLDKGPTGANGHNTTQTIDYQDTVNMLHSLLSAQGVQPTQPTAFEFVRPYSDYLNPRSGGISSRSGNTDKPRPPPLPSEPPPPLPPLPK

Compound	pIC50 (CDK9)	IC50 (MOLM14 cells; [3]) [nM]	IC50 (MOLM14 cells; [4]) [nM]	AML burden (fold-change total body luminescence vs d0) [1]	Kaplan-Meier survival ([1]; two 5 d treatment cycles, survival to d84, vs vehicle or monotherapy)	Sensitivity of MCL-1 overexpressing MOLM14 clones compared to control cell lines [2]
O=C(COc1cccc2c1C(=O)N(C1CCC(=O)NC1=O)C2=O)NCCCCCCC(=O)N1CCC(NC(=O)c2n[nH]cc2NC(=O)c2c(Cl)cccc2Cl)CC1 (centres unmarked) [CG-3-071]	8.55	1710	1910			
O=C(COc1cccc2c1C(=O)N(C1CCC(=O)NC1=O)C2=O)NCCOCCNC(=O)CN1CCC(NC(=O)c2n[nH]cc2NC(=O)c2c(Cl)cccc2Cl)CC1 (centres unmarked) [CG-3-066]	8.48	1970	1690			
CC(C)(C)OC(=O)CN1CCC(NC(=O)c2n[nH]cc2NC(=O)c2c(Cl)cccc2Cl)CC1 [AMC-3-086]	7.96	1560	1590			
O=C(COc1cccc2c1C(=O)N(C1CCC(=O)NC1=O)C2=O)NCCNC(=O)CN1CCC(NC(=O)c2n[nH]cc2NC(=O)c2c(Cl)cccc2Cl)CC1 (centres unmarked) [AMC-3-097]	8.40					
CC1(C)CCC(CN2CCN(c3ccc(C(=O)NS(=O)(=O)c4ccc(NCC5CCOCC5)c([N+](=O)[O-])c4)c(Oc4cnc5[nH]ccc5c4)c3)CC2)=C(c2ccc(Cl)cc2)C1 [VEN, venetoclax]				no detectable effect; also recorded: minimal activity	no detectable effect	more resistant
O=C(COc1cccc2c1C(=O)N(C1CCC(=O)NC1=O)C2=O)NCCC(=O)N1CCC(NC(=O)c2n[nH]cc2NC(=O)c2c(Cl)cccc2Cl)CC1 (centres unmarked) [AMC-3-104]	8.55					
CC(C)(C)OC(=O)N1CCC(NC(=O)c2n[nH]cc2NC(=O)c2c(Cl)cccc2Cl)CC1 [AMC-3-095]	7.95	1680	2010			
Cc1c(-c2c(-c3ccc(F)o3)sc3ncnc(O[C@H](Cc4ccccc4OCc4ccnn4CC(F)(F)F)C(=O)O)c23)ccc(OCCN2CCN(C)CC2)c1Cl [S63845]						reduced sensitivity
O=C(COc1cccc2c1C(=O)N(C1CCC(=O)NC1=O)C2=O)NCCOCCOCCNC(=O)CN1CCC(NC(=O)c2n[nH]cc2NC(=O)c2c(Cl)cccc2Cl)CC1 (centres unmarked) [CG-3-067]	8.41	4320	7150			
PEGylated L-asparaginase				minimal activity		
O=C1CCC(N2C(=O)c3cccc(OCC(=O)N4CCC(NC(=O)CN5CCC(NC(=O)c6n[nH]cc6NC(=O)c6c(Cl)cccc6Cl)CC5)CC4)c3C2=O)C(=O)N1 (centres unmarked) [AMC-3-106]	8.52	6070	8170			
O=C(NC1CCNCC1)c1n[nH]cc1NC(=O)c1c(Cl)cccc1Cl [AMC-3-098, N-(4-Piperidinyl)-4-(2,6-dichlorobenzoylamino)-1H-pyrazole-3-carboxamide, reference compound]		178	460			
O=C(CNC(=O)COc1cccc2c1C(=O)N(C1CCC(=O)NC1=O)C2=O)NCCCCCCC(=O)N1CCC(NC(=O)c2n[nH]cc2NC(=O)c2c(Cl)cccc2Cl)CC1 (centres unmarked) [SF-8-141]	8.35					
O=C1CCC(N2C(=O)c3cccc(OCC(=O)N4CCC(C(=O)N5CCC(NC(=O)c6n[nH]cc6NC(=O)c6c(Cl)cccc6Cl)CC5)CC4)c3C2=O)C(=O)N1 (centres unmarked) [SF-8-140]	8.78	3000	1820			
CNC(=O)c1cc(Oc2ccc(NC(=O)Nc3ccc(Cl)c(C(F)(F)F)c3)cc2)ccn1 [SOR, Sorafenib]				reduced AML burden only moderately; also recorded: significant difference in AML burden only at d7 and d14		
